Test [1] has as its system SAM-I riboswitch without spacer and poly(A) tail (RNA, riboswitch) GGGAUAUCCGUUCUUAUCAAGAGAAGCAGAGGGACUGGCCCGACGAAGCUUCAGCAACCGGUGUAAUGGCGAUCAGCCAUGACCAAGGUGCUAAAUCCAGCAAGCUCGAACAGCUUGGAAGAUAAGAAGAGACAAAAUCACUGACAAAGUCUUCUUCUU
Put plainly: fluorescence anisotropy switching (FASST), HOLO probe. The conditions noted are these: 150 mM NaCl, 2 mM MgCl2; 10 mM HEPES pH 7.4; HOLO-FAM-SAM DNA probe hybridizes. Background: In fluorescence polarisation assays a small probe gives low polarisation when free and higher when bound to something large.

Test [2] concerns SAM-I^1-156 (RNA, riboswitch) GGGAUAUCCGUUCUUAUCAAGAGAAGCAGAGGGACUGGCCCGACGAAGCUUCAGCAACCGGUGUAAUGGCGAUCAGCCAUGACCAAGGUGCUAAAUCCAGCAAGCUCGAACAGCUUGGAAGAUAAGAAGAGACAAAAUCACUGACAAAGUCUUCUUCUUCCCCCAAAAAAAAAAAAAAAAAAAAAAAA
Kind of test: SPR kinetics. The conditions noted are these: 150 mM NaCl, MgCl2; HBS-N, 10 mM HEPES pH 7.4; apparent. Background: Surface plasmon resonance follows binding to a sensor surface in real time, without labels.

Test [3] shares this test system. Kind of test: fluorescence anisotropy switching (FASST), HOLO probe. The conditions noted are these: 150 mM NaCl, 2 mM MgCl2; 10 mM HEPES pH 7.4, 37 °C; 350 nM RNA; 50 nM HOLO-FAM-SAM DNA probe hybridizes.
Test [4] shares this test system. Kind of test: fluorescence anisotropy switching (FASST), APO probe. The conditions noted are these: 150 mM NaCl, 2 mM MgCl2; 10 mM HEPES pH 7.4, 37 °C; 75 nM RNA; 50 nM APO-FAM-SAM DNA probe displaced.
Test [5] shares this test system. Put plainly: native PAGE switching with APO-FAM-SAM probe. The conditions noted are these: MgCl2; THEM buffer pH 7.5; APO-FAM-SAM DNA probe displaced.
Test [6] shares this test system. Kind of test: native PAGE switching, no probe. The conditions noted are these: MgCl2; THEM buffer pH 7.5; 0.5 μM RNA; top band; bottom band 23 ± 9 μM.
Test [7] has as its system SAM-I riboswitch without spacer and poly(A) tail (RNA, riboswitch) GGGAUAUCCGUUCUUAUCAAGAGAAGCAGAGGGACUGGCCCGACGAAGCUUCAGCAACCGGUGUAAUGGCGAUCAGCCAUGACCAAGGUGCUAAAUCCAGCAAGCUCGAACAGCUUGGAAGAUAAGAAGAGACAAAAUCACUGACAAAGUCUUCUUCUU
Put plainly: fluorescence anisotropy switching (FASST), APO probe. The conditions noted are these: 150 mM NaCl, 2 mM MgCl2; 10 mM HEPES pH 7.4; APO-FAM-SAM DNA probe displaced.

The test system of test [8] is SAM-I^AD (yitJ SAM-I aptamer domain) (RNA, riboswitch) GGGCGUUCUUAUCAAGAGAAGCAGAGGGACUGGCCCGACGAAGCUUCAGCAACCGGUGUAAUGGCGAUCAGCCAUGACCAAGGUGCUAAAUCCAGCAAGCUCGAACAGCUUGGAAGAUAAGAAGCCCCCAAAAAAAAAAAAAAAAAAAAAAAA
Put plainly: ITC. The conditions noted are these: 150 mM NaCl, 2 mM MgCl2; 10 mM HEPES pH 7.4, 25 °C; 10 μM RNA.

Test [9] has the same test system. Put plainly: SPR kinetics. The conditions noted are these: 150 mM NaCl, MgCl2; HBS-N, 10 mM HEPES pH 7.4; apparent.
Test [10] deals with SAM-I^1-156 (RNA, riboswitch) GGGAUAUCCGUUCUUAUCAAGAGAAGCAGAGGGACUGGCCCGACGAAGCUUCAGCAACCGGUGUAAUGGCGAUCAGCCAUGACCAAGGUGCUAAAUCCAGCAAGCUCGAACAGCUUGGAAGAUAAGAAGAGACAAAAUCACUGACAAAGUCUUCUUCUUCCCCCAAAAAAAAAAAAAAAAAAAAAAAA
Put plainly: native PAGE switching with HOLO-FAM-SAM probe. The conditions noted are these: MgCl2; THEM buffer pH 7.5; HOLO-FAM-SAM DNA probe hybridizes.

Test [11] deals with FMN^1-212 (RNA, riboswitch) GGGAAAAAUAAAUAUUAAAAAUAAUCUUCGGGGCAGGGUGAAAUUCCCGACCGGUGGUAUAGUCCACGAAAGUAUUUGCUUUGAUUUGGUGAAAUUCCAAAACCGACAGUAGAGUCUGGAUGAGAGAAGAAAAGAAAUUUAAGUUUUUUAACUUGUUUUCUACAUUUUAGUAAUCUUACCCGAAUUCUAUAAUUCGGUUUUUUUAUUUUAACUGGCCCCCAAAAAAAAAAAAAAAAAAAAAAAA
Kind of test: fluorescence anisotropy switching (FASST), APO probe. The conditions noted are these: 150 mM NaCl, 5 mM MgCl2, 350 nM RNA, 5 nM APO-FAM-FMN DNA probe displaced.

Test [12] shares this test system. Put plainly: SPR steady state. The conditions noted are these: 150 mM NaCl, 5 mM MgCl2; HBS-N, 10 mM HEPES pH 7.4; apparent.
The test system of test [13] is FMN^AD (FMN aptamer domain) (RNA, riboswitch) GGGAUCUUCGGGGCAGGGUGAAAUUCCCGACCGGUGGUAUAGUCCACGAAAGUAUUUGCUUUGAUUUGGUGAAAUUCCAAAACCGACAGUAGAGUCUGGAUGAGAGAAGACCCCCAAAAAAAAAAAAAAAAAAAAAAAA
Put plainly: SPR steady state. The conditions noted are these: 150 mM NaCl, MgCl2; HBS-N, 10 mM HEPES pH 7.4.

For test [14] the test system is unchanged. Put plainly: SPR kinetics. The conditions noted are these: 150 mM NaCl, MgCl2; HBS-N, 10 mM HEPES pH 7.4; apparent.
The subject of test [15] is FMN^1-212 (RNA, riboswitch) GGGAAAAAUAAAUAUUAAAAAUAAUCUUCGGGGCAGGGUGAAAUUCCCGACCGGUGGUAUAGUCCACGAAAGUAUUUGCUUUGAUUUGGUGAAAUUCCAAAACCGACAGUAGAGUCUGGAUGAGAGAAGAAAAGAAAUUUAAGUUUUUUAACUUGUUUUCUACAUUUUAGUAAUCUUACCCGAAUUCUAUAAUUCGGUUUUUUUAUUUUAACUGGCCCCCAAAAAAAAAAAAAAAAAAAAAAAA
Kind of test: SPR. The conditions noted are these: 150 mM NaCl, 5 mM MgCl2; HBS-N, 10 mM HEPES pH 7.4; apparent; Table 2 prints 150 ± 180 nM.

The test system of test [16] is SAM-I^1-156 (RNA, riboswitch) GGGAUAUCCGUUCUUAUCAAGAGAAGCAGAGGGACUGGCCCGACGAAGCUUCAGCAACCGGUGUAAUGGCGAUCAGCCAUGACCAAGGUGCUAAAUCCAGCAAGCUCGAACAGCUUGGAAGAUAAGAAGAGACAAAAUCACUGACAAAGUCUUCUUCUUCCCCCAAAAAAAAAAAAAAAAAAAAAAAA
Put plainly: SPR steady state. The conditions noted are these: 150 mM NaCl, 2 mM MgCl2, HBS-N, 10 mM HEPES pH 7.4, apparent, no switching seen by FASST.

For test [17], the system named is SAM-I^AD (yitJ SAM-I aptamer domain) (RNA, riboswitch) GGGCGUUCUUAUCAAGAGAAGCAGAGGGACUGGCCCGACGAAGCUUCAGCAACCGGUGUAAUGGCGAUCAGCCAUGACCAAGGUGCUAAAUCCAGCAAGCUCGAACAGCUUGGAAGAUAAGAAGCCCCCAAAAAAAAAAAAAAAAAAAAAAAA
Kind of test: SPR steady state. The conditions noted are these: 150 mM NaCl, MgCl2; HBS-N, 10 mM HEPES pH 7.4.

Regarding `C[S+](CC[C@H](N)C(=O)O)C[C@H]1O[C@@H](n2cnc3c(N)ncnc32)[C@H](O)[C@@H]1O` (some centres unmarked), the S50FASST is 0.19 ± 0.08 µM in test [1], 1.7 ± 0.4 µM in test [3], 19 ± 12 µM in [4] and 8 ± 3 µM in test [7]. Further, the values for the KD in test [2], in test [8] and in [9] were 0.0101 ± 0.0004 µM, 0.128 ± 0.027 µM and 0.004 ± 0.002 µM, respectively. Moreover, the “S50 NP” value in test [5] was 46 ± 44 µM; in [6], 6 ± 2 µM; in [10] it was 1.03 ± 0.08 µM.

Compound `Cc1cc2nc3c(=O)[nH]c(=O)nc-3n(C[C@H](O)[C@H](O)[C@H](O)CO)c2cc1C` had an S50FASST in test [11] (10 mM HEPES pH 7.4, overnight) of 0.7 ± 0.3 µM. For the same compound, the results for the KD in [12] and in [13] were 32 ± 11 µM and 30 ± 18 µM, respectively.

In test [11] (10 mM HEPES pH 7.4, overnight), `Cc1cc2nc3c(=O)[nH]c(=O)nc-3n(C[C@H](O)[C@H](O)[C@H](O)CO)c2cc1N(C)C` returned an S50FASST of 24 ± 20 µM. Moreover, the KD in test [12] turned out to be 4.9 ± 0.2 µM; in test [13], 2 ± 1 µM.

With `Cc1cc2nc3c(=O)[nH]c(=O)nc-3n(C[C@H](O)[C@H](O)[C@H](O)COP(=O)(O)O)c2cc1C`, the KD in [14] came to 0.16 ± 0.012 µM; in [15] it was 0.095 ± 0.05 µM. This compound had an S50FASST in [11] (10 mM HEPES pH 7.4, 37 °C) of 0.29 ± 0.06 µM.

For `Nc1ncnc2c1ncn2[C@@H]1O[C@H](CSCC[C@H](N)C(=O)O)[C@@H](O)[C@H]1O`, the KD in test [16] worked out at 46 ± 27 µM; in [17], 195 ± 22 µM.

In the case of `Nc1ncnc2c1ncn2[C@@H]1O[C@H](C[C@@H](N)CC[C@H](N)C(=O)O)[C@@H](O)[C@H]1O`, the KD in test [16] (error exceeds value) stood at 2000 ± 3000 µM; in test [17] it was 129 ± 14 µM.

Source of the values: publication PMC11014391 (2024).
